Source: BigSolDB 2.1

O=C(O)c1ccc(Cl)cc1Cl
solubility (mole fraction)
Details | in acetone | in acetonitrile | in ethanol | in ethyl acetate | in isobutanol | in isopropanol | in methanol | in n-butanol | in n-propanol | in toluene
273.15 K | 0.0323 | 0.00318 | 0.0364 | 0.0232 | 0.0242 | 0.0367 | 0.0261 | 0.0374 | 0.0348 | 0.00132
278.15 K | 0.0359 | 0.00361 | 0.04 | 0.0263 | 0.0281 | 0.0412 | 0.0294 | 0.0418 | 0.0385 | 0.00174
283.15 K | 0.0394 | 0.00451 | 0.0442 | 0.0308 | 0.0326 | 0.0459 | 0.0331 | 0.0468 | 0.0422 | 0.0022
288.15 K | 0.0439 | 0.00531 | 0.0485 | 0.0347 | 0.0375 | 0.0501 | 0.0369 | 0.0511 | 0.0465 | 0.00284
293.15 K | 0.0482 | 0.00597 | 0.0537 | 0.0395 | 0.043 | 0.0565 | 0.0411 | 0.0563 | 0.052 | 0.0036
298.15 K | 0.0531 | 0.00702 | 0.0591 | 0.0441 | 0.0483 | 0.0627 | 0.0458 | 0.0616 | 0.0575 | 0.00433
303.15 K | 0.0585 | 0.00786 | 0.065 | 0.0484 | 0.0535 | 0.0699 | 0.0505 | 0.0676 | 0.0631 | 0.00552
308.15 K | 0.0648 | 0.00929 | 0.0719 | 0.0537 | 0.0597 | 0.0769 | 0.0556 | 0.0746 | 0.0695 | 0.00671
313.15 K | 0.0713 | 0.0103 | 0.0788 | 0.0595 | 0.066 | 0.0849 | 0.0616 | 0.0814 | 0.0763 | 0.00837
318.15 K | 0.0784 | 0.0115 | 0.0849 | 0.0654 | 0.0719 | 0.0944 | 0.0673 | 0.0891 | 0.0823 | 0.00993
